The source of these data is patent US9107946B2, “Drug combinations comprising a DGAT inhibitor and a PPAR-agonist” (Janssen Pharmaceutica NV, priority 2008, dated 2015).

Series [1] concerns the target T1, human DGAT1 (Homo sapiens, UniProt O75907).
T1 construct: FLAG (N); made in house; host or cells: SF9 insect cells (pFastBac / baculovirus); total cell membranes
T1 sequence (O75907 1-488): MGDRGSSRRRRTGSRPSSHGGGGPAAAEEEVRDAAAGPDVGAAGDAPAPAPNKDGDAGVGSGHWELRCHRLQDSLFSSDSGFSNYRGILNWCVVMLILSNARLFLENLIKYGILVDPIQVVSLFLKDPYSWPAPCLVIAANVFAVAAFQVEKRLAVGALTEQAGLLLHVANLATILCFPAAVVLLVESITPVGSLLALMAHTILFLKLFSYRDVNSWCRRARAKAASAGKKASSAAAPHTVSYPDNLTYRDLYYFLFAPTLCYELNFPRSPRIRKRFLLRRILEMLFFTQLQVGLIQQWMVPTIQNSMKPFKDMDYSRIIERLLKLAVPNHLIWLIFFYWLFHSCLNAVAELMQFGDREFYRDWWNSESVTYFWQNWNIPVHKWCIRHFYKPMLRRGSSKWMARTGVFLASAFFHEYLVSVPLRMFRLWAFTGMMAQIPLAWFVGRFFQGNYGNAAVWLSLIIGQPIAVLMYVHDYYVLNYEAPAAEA
As to the kind of experiment: DGAT1 FlashPlate assay: inhibition of DGAT1 activity in membrane preparations. It counts as biochemical. The note with it: human DGAT1 membranes from SF9 cells, [3H]-oleoylCoA, 120 min at 37° C.; read-out: pIC50 (-logIC50, 50% inhibition of DGAT1 activity) (converted). The text has this: The inhibiting activity of compounds of Class A, Class B, Class C and Class D on DGAT1 activity was screened in a single well procedure assay using DGAT1 comprising membrane preparations and DGAT1 substrate comprising micelles and determining formed radio-active triacylglycerol coming in close proximity of a flashplate surface by radioluminescence.
Said assay is described in full detail in WO2006/067071, the content of which is incorporated herein by reference.
By DGAT1 activity is meant the transfer of coenzyme A activated fatty acids to the 3-position of 1,2-diacylglycerols, thus forming a triglyceride molecule, by enzyme DGAT1.
human DGAT1 (NM012079.2) was cloned into the pFastBac vector, containing translation start, a FLAG-tag at the N-terminus as described in literature and a viral Kozak sequence (AAX) preceding the ATG to improve expression in insect cells. Expression was done as described in literature (Cases, S., Smith, S. J., Zheng, Y., Myers H. M., Lear, S. R., Sande, E., Novak, S., Collins, C., Welch, C. B., Lusis, A. J., Erickson, S. K. and Farese, R. V. (1998) Proc. Natl. Acad. Sci. USA 95, 13018-13023.) using SF9 cells.
72h transfected SF9 cells were collected by centrifugation (13000 rpm-15 min-4° C.) and lysed in 2×500 ml lysisbuffer (0.1M Sucrose, 50 mM KCl, 40 mM KH2PO4, 30 mM EDTA pH 7.2. Cells were homogenized by cell disruptor. After centrifugation 1380 rpm-15 min-4° C. (SN discarded), pellet was resuspended in 500 ml lysisbuffer and total cell membranes collected by ultracentrifugation at 34000 rpm(100 000 g) for 60 min (4° C.). The collected membranes were resuspended in lysis buffer, divided in aliquots and stored with 10% glycerol at −80° C. until use.
• a) 1,2-dioleoyl-sn-glycerol, 10 mg/ml (1,2-diacylglycerol (DAG)) Dissolve in acetonitrile; evaporate the acetonitrile solution under nitrogen and reconstitute in chloroform at a final concentration of 10 mg/ml. • b) L-α-phosphatidylcholine, 1 mg/ml (phosphatidylcholine (PC)) • Dissolve in chloroform at a final concentration of 1 mg/ml and store at 4° C. • c) L-α-phosphatidyl-L-serine, 1 mg/ml (phophatidylserine (PS)) • Dissolve in chloroform at a final concentration of 1 mg/ml and store at 4° C. Method
Add 1 ml dioleoyl-sn-glycerol (10 mg/ml) to 10 ml of L-α-phosphatidylcholine (1 mg/ml) and 10 ml of L-α-phosphatidyl-L-serine (1 mg/ml) in a thick glass recipient. Evaporate under nitrogen and put on ice for 15 min Reconstitute in 10 ml Tris/HCl (10 mM, pH 7.4) by sonication on ice. The sonification process includes sonification cycles of 10 seconds in the sonification bath followed by 10 seconds cool down on ice and repeating this sonification cycle till a homogeneous solution is obtained (takes about 15 min). The thus obtained micelles are stored at −20° C. till later use and contain DAG at a final concentration of 1.61 mM.
• a) Assaybuffer • 50 mM Tris-HCl (pH 7.4), 150 mM MgCl2, 1 mM EDTA, 0.2% BSA. • b) N-ethylmaleimide, 5M • Dissolve 5 g into a final volume of 8 ml DMSO 100% and store at −20° C. in aliquots till later use. • c) Substrate mix (for 1 384 well plate=3840 μl) • 612 μl micelles stock (51 μM final) • 16.6 μl oleoylCoA 9.7 mM • 23 μl [^3H]-oleoylCoA (49 Ci/mmol, 500 μCi/ml) • 3188.4 μl Tris pH 7.4, 10 mM • d) Enzyme mix (for 1 384 well plate=3520 μl) (5 μg/ml) • Add 11.73 μl of DGAT membrane stock (1500 μg/ml stock) to 3508 μl assay buffer. • e) Stop mix (for 1 384 well plate=7.68 ml) (250 mM) • Add 384 μl of N-ethylmaleimide (5M) to 3.456 ml DMSO 100%, and further dilute 3.84 ml of said solution with 3.84 ml DMSO 10%. Method
DGAT activity in membrane preparations was assayed in 50 mM Tris-HCl (pH 7.4), 150 mM MgCl2, 1 mM EDTA and 0.2% BSA, containing 50 μM DAG, 32 μg/ml PC/PS and 8.4 μM [^3H]-oleoylCoA (at a specific activity of 30 nCi/well) in a final volume of 50 μl in 384-well format using the red shifted Basic Image FlashPlate™ (Perkin Elmer Cat.No. SMP400). […]

For series [2] the following is noted: 0.04% compound 358 of Class D and/or 0.05% fenofibrate in diet.
Procedure: Male C57BL/6 mice were housed in individually ventilated cages under controlled temperature (21° C.), humidity (45-65%) and light (12 h-12 h reverse light/dark cycle; Lights on—6 PM-6 AM). Mice were set on 60 kcal % fat energy diet until their average body weight was over 45 grams, at which time they were switched to a 45 kcal % fat diet.
For the purpose of Tests A, B and C, the mice were moved into modified type-2 cages with: doublewide food cup, wire grids and a tissue for bedding for several months before experiment to adapt to new housing/feeding conditions. Food (Research diets 45 kcal % diet D12451—see Scheme A) was provided in powdered form in a food hopper located off the front of the cage. […]
The mice were weighted the day before trial onset. […] The food intake the day before trial onset was also measured. […]
Food cups were filled and weighted daily during the experiment. Body weight was recorded every 2nd or 3rd day.
Food Intake and Body Weight data were analyzed using General Linear Models procedures appropriate for a 2×2 factorial design with blocking and repeated measures. […] Results were expressed as means±SEM (standard error of the mean). […]
Series [3] is described as follows: Test A: food intake, body weight and serum biochemistry, DGAT inhibitor, fenofibrate or both in diet. It counts as in vivo, DIO C57BL/6 mice. The following applies: 12 day trial, 45 kcal % fat diet; for cumulative food intake less than the control group: 0.04% D and/or 0.05% F in diet, only D+F significant (P<0.05). The source says:
Diet was provided in powder form.
At the end of test A, blood was collected under isoflurane anesthesia for serum biochemistry determinations.

Where two headings read alike, the source gives them in different places.

As for `COc1cc(CNC(=O)c2ccc(N3CCN(C(=O)Cc4c(Cl)cc(CN5CCCC5)cc4Cl)CC3)cc2)cc(OC)c1` [358-Class D, 4-[4-[[2,6-dichloro-4-(1-pyrrolidinylmethyl)phenyl]acetyl]-1-piperazinyl]-N-[(3,5-dimethoxyphenyl)methyl]-benzamide], the melting point lay within 199 to 200 °C. Further, the IC50 in series [1] was 25.7 nM. The “21 days body weight change compared to controls (2x2 factorial)” value in series [2] (main effects P<0.05, interaction P>0.05) is on record as “gained less weight than controls”. The “daily food intake compared to control mice” value in series [2] (45 kcal % fat diet, n=8/group) is reported as “not significantly less than control mice”.
`CCN1CCN(Cc2cc(Cl)c(CC(=O)N3CCN(c4ccc(C(=O)NCc5cc(OC)cc(OC)c5)cc4)CC3)c(Cl)c2)CC1` [360-Class D, 4-[4-[[2,6-dichloro-4-[(4-ethyl-1-piperazinyl)methyl]phenyl]acetyl]-1-piperazinyl]-N-[(3,5-dimethoxyphenyl)methyl]-benzamide]: the melting point lay in the range of 159 to 160 °C. In addition, the IC50 in series [1] is 7.59 nM.
For `CC(=O)N1CCN(Cc2cc(Cl)c(CC(=O)N3CCN(c4ccc(C(=O)NCc5cccc(N6CCCC6)c5)cc4)CC3)c(Cl)c2)CC1` [361-Class D, 4-[4-[[4-[(4-acetyl-1-piperazinyl)methyl]-2,6-dichlorophenyl]acetyl]-1-piperazinyl]-N-[[3-(1-pyrrolidinyl)phenyl]methyl]-benzamide], the melting point was in the range of 164 to 166 °C. For the same molecule, in series [1], the IC50 is 13.5 nM.
The like results for `COc1cc(CNC(=O)c2ccc(N3CCN(C(=O)Cc4c(Cl)cc(CN5CCN(C(C)=O)CC5)cc4Cl)CC3)cc2)cc(OC)c1` [362-Class D, 4-[4-[[4-[(4-acetyl-1-piperazinyl)methyl]-2,6-dichlorophenyl]acetyl]-1-piperazinyl]-N-[(3,5-dimethoxyphenyl)methyl]-benzamide] were, in that order, 123 to 126 °C and 9.12 nM.
The like results for `CS(=O)(=O)N1CCN(Cc2cc(Cl)c(CC(=O)N3CCN(c4ccc(C(=O)NCc5cccc(N6CCCC6)c5)cc4)CC3)c(Cl)c2)CC1` [363-Class D, 4-[4-[[2,6-dichloro-4-[[4-(methylsulfonyl)-1-piperazinyl]methyl]phenyl]acetyl]-1-piperazinyl]-N-[[3-(1-pyrrolidinyl)phenyl]methyl]-benzamide] were, in that order, 241 to 243 °C and 11.5 nM.
Taken in the same sequence, the figures for `COc1cc(CNC(=O)c2ccc(N3CCN(C(=O)Cc4c(Cl)cc(CN5CCN(S(C)(=O)=O)CC5)cc4Cl)CC3)cc2)cc(OC)c1` [364-Class D, 4-[4-[[2,6-dichloro-4-[[4-(methylsulfonyl)-1-piperazinyl]methyl]phenyl]acetyl]-1-piperazinyl]-N-[(3,5-dimethoxyphenyl)methyl]-benzamide] were 152 to 154 °C and 5.75 nM.
As to `COc1ccc(CC(=O)Nc2ccc(N3CCN(C(=O)Nc4c(Cl)cc(CN5CCCC5)cc4Cl)CC3)cc2)cc1` [compound 223 of Class D], the “cumulative food intake less than the control group” value in series [3] is reported as 3.2%. The “daily food intake compared to control mice” value in series [3] (0.04% compound 223 of Class D (D) and/or 0.05% fenofibrate (F) in diet) is “not significantly less than control mice”.
For the molecule `CC(C)OC(=O)C(C)(C)Oc1ccc(C(=O)c2ccc(Cl)cc2)cc1` [fenofibrate, reference compound], the “cumulative food intake less than the control group” value in series [3] came to 7.5%.

The term melting point denotes the temperature, or range, at which the solid turns liquid.
